Experimental data as given in paper PMC9606171, “Synthetic PPAR Agonist DTMB Alleviates Alzheimer’s Disease Pathology by Inhibition of Chronic Microglial Inflammation in 5xFAD Mice” (Neurotherapeutics, 2022).

Key:
[1] = tested on: RAW 264.7 macrophage cells; test: Griess assay, LPS-induced NO production; type: cell-based; conditions: LPS (1 µg/mL), 24 h
Procedure: Griess assay (Promega) was performed under manufacturer’s instruction to measure the concentration of nitrite after inducing the inflammatory response in RAW 264.7 macrophage cells by LPS treatment. The well-known PPAR selective agonists, such as WY14643 (PPARα), GW501516 (PPAR-β/δ), and rosiglitazone (PPARγ), were used as positive controls.

PPAR-β/δ = tested on: PPAR-β/δ; parameters: method as in PMID 27802237; conditions: dual agonist of PPAR-β/δ and PPARγ; cited from earlier work

Compound	inhibition of NO production compared between DTMB and known PPAR agonists [1]	selectivity to PPAR-β/δ (PPAR-β/δ)
Cc1cc(SCc2sc(-c3ccc(C(F)(F)F)cc3)nc2C)ccc1OCC(=O)O [GW501516, reference compound]	better inhibitor than DTMB	–
CCc1oc(-c2ccc(OC)cc2)nc1CCOc1ccc2c(c1)CC[C@H]2CC(=O)[O-].[Na+] [T3D-959]	–	15 fold
